The numbers were not newly measured in patent US11337932B2, “Transdermal therapeutic system containing asenapine and polysiloxane or polyisobutylene” (LTS LOHMANN Therapie-Systeme AG, priority 2016, dated 2022), which cites them from elsewhere.

For data set [1] the following is noted: if ingested.
Data set [2] has as its target serotonin 5-HT2A receptors (Homo sapiens, UniProt P28223). The conditions noted are these: background statement; antagonist at dopamine D2 and serotonin 5-HT2A receptors.

serotonin 5-HT2A receptors, sequence (P28223 whole entry): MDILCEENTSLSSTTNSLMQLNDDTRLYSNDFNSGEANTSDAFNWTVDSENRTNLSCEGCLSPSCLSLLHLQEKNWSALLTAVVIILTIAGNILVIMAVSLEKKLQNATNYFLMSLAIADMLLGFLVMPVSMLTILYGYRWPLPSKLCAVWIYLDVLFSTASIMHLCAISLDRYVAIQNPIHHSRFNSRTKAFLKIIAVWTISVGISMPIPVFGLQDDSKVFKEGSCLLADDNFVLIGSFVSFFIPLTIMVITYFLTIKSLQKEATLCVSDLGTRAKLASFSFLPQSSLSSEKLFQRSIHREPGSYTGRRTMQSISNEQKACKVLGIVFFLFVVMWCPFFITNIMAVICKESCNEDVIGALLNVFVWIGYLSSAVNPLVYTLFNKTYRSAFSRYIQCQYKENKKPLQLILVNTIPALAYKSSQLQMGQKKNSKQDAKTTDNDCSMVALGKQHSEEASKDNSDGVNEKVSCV

The term bioavailability denotes the share of a dose that reaches the circulation, judged against a reference dose that is usually intravenous. As to `CN1C[C@H]2c3ccccc3Oc3ccc(Cl)cc3[C@@H]2C1` (relative stereo) [asenapine, (3aRS,12bRS)-rel-5-chloro-2,3,3a,12b-tetrahydro-2-methyl-1H-dibenz[2,3:6,7]oxepino[4,5-c]pyrrole], the bioavailability in data set [1] is reported as less than 2%. Further, the affinity result in data set [2] is on record as “high affinity”.
